For test [1], the target named is Growth factor receptor-bound protein 2 (Mus musculus) (UniProt Q60631). The test is described as follows: In vitro inhibitory activity against Shc/Grb2 interactions in B104-1-1 cells at 5 uM. The format is functional, cell-based.
Test [2] has the same target. The test is described as follows: In vitro inhibitory activity against Shc/Grb2 interactions in B104-1-1 cells at 2 uM. The format is functional, cell-based.
For test [3], the target named is Growth factor receptor-bound protein 2 (Mus musculus, UniProt Q60631). The test can be described thus: In vitro binding assay of Shc-derived phosphopeptide to Growth factor receptor bound protein 2 SH2 in B104-1-1 cells was determined. The format is cell-based.
For another test, the system named is B104. The test is described as follows: Growth inhibitory activity was tested against B104-1-1 cells. It counts as functional, Mus musculus.

Numbered stars: 1 amine (or outer) side, 2 acyl side, 3 side chain; on linkers, the order of the positions; unused ones are H or OH. Bridge positions count the residues as written; N and C are the ends. Square brackets hold non-standard residues; d marks the D form. Peptide text beside a SMILES is read from it. I, II: the chains in the order shown. Actinocin(1to9) = Cc1c2oc3c(C)ccc(C(=O)[*:2])c3nc-2c(C(=O)[*:1])c(N)c1=O; NMeV = CN[C@H](C(=O)O)C(C)C; Sar = CNCC(=O)O

As usually defined, the inhibition is the drop in the measured response relative to a control, in per cent. The low end stands for little suppression, the high end for strong suppression. As usually defined, the IC50 is the concentration that inhibits the measured activity by half. Lower therefore signals higher potency. In general, GI50 refers to the concentration at which growth is held to half of that of the control. The low end stands for more potent growth inhibition, the high end for less potent growth inhibition.

Growth factor receptor-bound protein 2 (Mus musculus), sequence (Q60631 whole entry): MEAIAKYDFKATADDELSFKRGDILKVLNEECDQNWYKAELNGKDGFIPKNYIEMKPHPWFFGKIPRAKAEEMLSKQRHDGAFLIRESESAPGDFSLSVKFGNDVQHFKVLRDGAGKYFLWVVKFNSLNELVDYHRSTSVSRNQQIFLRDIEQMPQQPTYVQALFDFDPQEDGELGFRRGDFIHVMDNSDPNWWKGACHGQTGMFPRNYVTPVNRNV
Growth factor receptor-bound protein 2, sequence (Q60631 whole entry): as above

For the compound `Cc1c2oc3c(C)ccc(C(=O)N[C@@H]4C(=O)N[C@H](C(C)C)C(=O)N5CCC[C@H]5C(=O)N(C)CC(=O)N[C@H](Cc5ccc(O)cc5)C(=O)O[C@@H]4C)c3nc-2c(C(=O)N[C@@H]2C(=O)N[C@H](C(C)C)C(=O)N3CCC[C@H]3C(=O)N(C)CC(=O)N[C@H](Cc3ccc(O)cc3)C(=O)O[C@@H]2C)c(N)c1=O` (stereo in doubt; 12) [listing 1 of 2 here], the inhibition was 90.2% in test [1] and 79.9% in test [2].

Turning to `Cc1c2oc3c(C)ccc(C(=O)N[C@@H]4C(=O)N[C@H](Cc5ccccc5)C(=O)N5CCC[C@H]5C(=O)N(C)CC(=O)N[C@@H](C(C)C)C(=O)O[C@@H]4C)c3nc-2c(C(=O)N[C@@H]2C(=O)N[C@H](Cc3ccccc3)C(=O)N3CCC[C@H]3C(=O)N(C)CC(=O)N[C@@H](C(C)C)C(=O)O[C@@H]2C)c(N)c1=O`, the inhibition in test [1] is 82.8%; in test [2], 73.6%. In test [3], this compound returned an IC50 of 1200 nM. This compound also registered a GI50 in the test on B104 of 8 nM.

As to `Cc1c2oc3c(C)ccc(C(=O)N[C@@H]4C(=O)N[C@H](C(C)C)C(=O)N5CCC[C@H]5C(=O)N(C)CC(=O)N(C)[C@@H](C(C)C)C(=O)O[C@@H]4C)c3nc-2c(C(=O)N[C@@H]2C(=O)N[C@H](C(C)C)C(=O)N3CCC[C@H]3C(=O)N(C)CC(=O)N(C)[C@@H](C(C)C)C(=O)O[C@@H]2C)c(N)c1=O` [DACTINOMYCIN] (I: T[dV]P[Sar][NMeV] / II: T[dV]P[Sar][NMeV]; ester I:1-I:C, II:1-II:C; linker I:N-II:N via Actinocin(1to9)), the results for the inhibition in test [1] and in test [2] were 50.5% and 40.1%, respectively. Further, the IC50 in test [3] came to 5000 nM. Also, the GI50 with B104 turned out to be 0.7 nM.

In the case of `Cc1c2oc3c(C)ccc(C(=O)N[C@@H]4C(=O)N[C@H](C(C)C)C(=O)N5CCC[C@H]5C(=O)N(C)CC(=O)N[C@@H](Cc5ccccc5)C(=O)O[C@@H]4C)c3nc-2c(C(=O)N[C@@H]2C(=O)N[C@H](C(C)C)C(=O)N3CCC[C@H]3C(=O)N(C)CC(=O)N[C@@H](Cc3ccccc3)C(=O)O[C@@H]2C)c(N)c1=O`, the inhibition worked out at 78.8% in test [1] and 56.8% in test [2]. The compound also displayed an IC50 in test [3] of 1800 nM.

For the compound `COc1ccc(C[C@@H]2NC(=O)CN(C)C(=O)[C@@H]3CCCN3C(=O)[C@@H](C(C)C)NC(=O)[C@@H](NC(=O)c3c4nc5c(C(=O)N[C@@H]6C(=O)N[C@H](C(C)C)C(=O)N7CCC[C@H]7C(=O)N(C)CC(=O)N[C@@H](Cc7ccc(OC)cc7)C(=O)O[C@@H]6C)ccc(C)c5oc-4c(C)c(=O)c3N)[C@@H](C)OC2=O)cc1`, the inhibition amounted to 73.8% in test [1] and 55.1% in test [2]. The compound also displayed an IC50 in test [3] of 2000 nM.

`Cc1c2oc3c(C)ccc(C(=O)N[C@@H]4C(=O)N[C@H](C(C)C)C(=O)N5CCC[C@H]5C(=O)N(C)CC(=O)N[C@H](Cc5ccc(O)cc5)C(=O)O[C@@H]4C)c3nc-2c(C(=O)N[C@@H]2C(=O)N[C@H](C(C)C)C(=O)N3CCC[C@H]3C(=O)N(C)CC(=O)N[C@H](Cc3ccc(O)cc3)C(=O)O[C@@H]2C)c(N)c1=O` (stereo in doubt; 12) [listing 2 of 2 here] registered a half-inhibitory concentration (IC50) in test [3] of 800 nM.

The compound `Cc1c2oc3c(C)ccc(C(=O)N[C@@H]4C(=O)N[C@H](Cc5ccc(O)cc5)C(=O)N5CCC[C@H]5C(=O)N(C)CC(=O)N[C@@H](C(C)C)C(=O)O[C@@H]4C)c3nc-2c(C(=O)N[C@@H]2C(=O)N[C@H](Cc3ccc(O)cc3)C(=O)N3CCC[C@H]3C(=O)N(C)CC(=O)N[C@@H](C(C)C)C(=O)O[C@@H]2C)c(N)c1=O` (stereo in doubt; 7) [listing 1 of 2 here] came in with an IC50 in test [3] of 4500 nM.

Turning to `Cc1c2oc3c(C)ccc(C(=O)N[C@@H]4C(=O)N[C@H](Cc5ccc(O)cc5)C(=O)N5CCC[C@H]5C(=O)N(C)CC(=O)N[C@@H](C(C)C)C(=O)O[C@@H]4C)c3nc-2c(C(=O)N[C@@H]2C(=O)N[C@H](Cc3ccc(O)cc3)C(=O)N3CCC[C@H]3C(=O)N(C)CC(=O)N[C@@H](C(C)C)C(=O)O[C@@H]2C)c(N)c1=O` (stereo in doubt; 7) [listing 2 of 2 here], the inhibition in test [1] came out at 56.6%; in test [2], 42.9%.

`Cc1c2oc3c(C)ccc(C(=O)N[C@@H]4C(=O)N[C@H](Cc5ccc(O)cc5)C(=O)N5CCC[C@H]5C(=O)N(C)CC(=O)N[C@@H](C(C)C)C(=O)O[C@@H]4C)c3nc-2c(C(=O)N[C@@H]2C(=O)N[C@H](Cc3ccc(O)cc3)C(=O)N3CCC[C@H]3C(=O)N(C)CC(=O)N[C@@H](C(C)C)C(=O)O[C@@H]2C)c(N)c1=O` (stereo in doubt; 1) came in with an IC50 in test [3] of 500 nM.

With `COc1ccc(C[C@H]2NC(=O)CN(C)C(=O)[C@@H]3CCCN3C(=O)[C@@H](C(C)C)NC(=O)[C@@H](NC(=O)c3c4nc5c(C(=O)N[C@@H]6C(=O)N[C@H](C(C)C)C(=O)N7CCC[C@H]7C(=O)N(C)CC(=O)N[C@H](Cc7ccc(OC)cc7)C(=O)O[C@@H]6C)ccc(C)c5oc-4c(C)c(=O)c3N)[C@@H](C)OC2=O)cc1`, the inhibition turned out to be 73% in test [1] and 46.9% in test [2]. Also, in test [3], the IC50 turned out to be 2000 nM.

Regarding `Cc1c2oc3c(C)ccc(C(=O)N[C@@H]4C(=O)N[C@H](C(C)C)C(=O)N5CCC[C@H]5C(=O)N(C)CC(=O)N[C@@H](Cc5ccc(O)cc5)C(=O)O[C@@H]4C)c3nc-2c(C(=O)N[C@@H]2C(=O)N[C@H](C(C)C)C(=O)N3CCC[C@H]3C(=O)N(C)CC(=O)N[C@@H](Cc3ccc(O)cc3)C(=O)O[C@@H]2C)c(N)c1=O` (stereo in doubt; 8) [listing 1 of 2 here], the IC50 in test [3] is > 10000 nM.

Compound `Cc1c2oc3c(C)ccc(C(=O)N[C@@H]4C(=O)N[C@H](C(C)C)C(=O)N5CCC[C@H]5C(=O)N(C)CC(=O)N[C@@H](Cc5ccc(O)cc5)C(=O)O[C@@H]4C)c3nc-2c(C(=O)N[C@@H]2C(=O)N[C@H](C(C)C)C(=O)N3CCC[C@H]3C(=O)N(C)CC(=O)N[C@@H](Cc3ccc(O)cc3)C(=O)O[C@@H]2C)c(N)c1=O` (stereo in doubt; 10) [listing 1 of 2 here] showed an IC50 in test [3] of 800 nM.

Take `Cc1c2oc3c(C)ccc(C(=O)N[C@@H]4C(=O)N[C@H](C(C)C)C(=O)N5CCC[C@H]5C(=O)N(C)CC(=O)N[C@@H](Cc5ccc(O)cc5)C(=O)O[C@@H]4C)c3nc-2c(C(=O)N[C@@H]2C(=O)N[C@H](C(C)C)C(=O)N3CCC[C@H]3C(=O)N(C)CC(=O)N[C@@H](Cc3ccc(O)cc3)C(=O)O[C@@H]2C)c(N)c1=O` (stereo in doubt; 8) [listing 2 of 2 here]: the figures for the inhibition in test [1] and in test [2] were 28.5% and 15.9%, respectively.

Consider `Cc1c2oc3c(C)ccc(C(=O)N[C@@H]4C(=O)N[C@H](C(C)C)C(=O)N5CCC[C@H]5C(=O)N(C)CC(=O)N[C@H](Cc5ccc(O)cc5)C(=O)O[C@@H]4C)c3nc-2c(C(=O)N[C@@H]2C(=O)N[C@H](C(C)C)C(=O)N3CCC[C@H]3C(=O)N(C)CC(=O)N[C@H](Cc3ccc(O)cc3)C(=O)O[C@@H]2C)c(N)c1=O` (stereo in doubt; 5), for which the IC50 in test [3] is > 10000 nM.

With `Cc1c2oc3c(C)ccc(C(=O)N[C@@H]4C(=O)N[C@H](C(C)C)C(=O)N5CCC[C@H]5C(=O)N(C)CC(=O)N[C@@H](Cc5ccc(O)cc5)C(=O)O[C@@H]4C)c3nc-2c(C(=O)N[C@@H]2C(=O)N[C@H](C(C)C)C(=O)N3CCC[C@H]3C(=O)N(C)CC(=O)N[C@@H](Cc3ccc(O)cc3)C(=O)O[C@@H]2C)c(N)c1=O` (stereo in doubt; 10) [listing 2 of 2 here], the inhibition in test [1] is 89.7%; in test [2], 75.9%.

The values above are taken from ChEMBL document CHEMBL1133215, “Natural and synthetic analogues of actinomycin D as Grb2-SH2 domain blockers” (Bioorg Med Chem Lett, 2000).
